Assay results published in publication PMC6216040, “Repurposing of an old drug: In vitro and in vivo efficacies of buparvaquone against Echinococcus multilocularis” (International Journal for Parasitology: Drugs and Drug …, 2018).
Read-outs that look alike come from different tables or passages of the source.

Test system: E. multilocularis metacestodes
Experiment: PGI-assay: drug-induced damage on in vitro cultured metacestodes (Pathogen Box screening cascade and EC50)
Type: cell-based, Echinococcus multilocularis
Conditions: for PGI release, % of the Tx-100 control, 5d / PGI release, % of the Tx-100 control, 12d / cytotoxicity at 10 µM: 10 µM, singlets; for cytotoxicity at 10 µM: Echinococcus multilocularis; for PGI release, % of Tx-100 control, average, 5d / PGI release, % of Tx-100 control, average, 12d: confirmatory screening at 10 µM in triplicates, values as % of Tx-100 control
[1] = 120 h, 5 days of incubation, read-out: PGI release, % of the Tx-100 control, 5d
[2] = 288 h, 12 days of incubation, read-out: PGI release, % of the Tx-100 control, 12d

SMILES	PGI release, % of the Tx-100 control, 5d (5 days of incubation) [%]	PGI release, % of the Tx-100 control, 12d (12 days of incubation) [%]	cytotoxicity at 10 µM [1] [%]	cytotoxicity at 10 µM [2] [%]	PGI release, % of Tx-100 control, average, 5d (5 days of incubation) [%]	PGI release, % of Tx-100 control, average, 12d (12 days of incubation) [%]
CCc1ccccc1-n1c(C)cn2c3c(=O)n(C(C(=O)OC)C(C)C)c(=O)n(C)c3nc12 (centres unmarked) [MMV688550]	-2.01	-6.25	–	–	–	–
Cc1nn(C(=O)Nc2cccc(C(F)(F)F)c2)c(C)c1Sc1ncccn1 [MMV688552]	0.35	1.89	–	–	–	–
O=C(NCc1ccoc1)N1CCN(Cc2ccc3c(c2)OCO3)CC1 [MMV688553]	0.80	-2.91	–	–	–	–
CNc1snc(C)c1C(=O)NCCOc1ccc(OC)cc1 [MMV688554]	-1.97	1.18	–	–	–	–
O=C(NCc1ccco1)N1CCN(Cc2ccc(Cl)s2)CC1 [MMV688555]	1.40	3.17	–	–	–	–
NCC(c1cccs1)S(=O)(=O)c1ccccc1 (centres unmarked) [MMV688557]	0.26	-2.41	–	–	–	–
CN1CCC(c2cc(-c3ccncc3)c(-c3ccc(F)cc3)[nH]2)CC1 [MMV688703]	0.17	-2.29	–	–	–	–
Cc1cc2nc(NC(=O)C(C)(C)C)nc(Cl)c2n1Cc1ccc(Cl)cc1 [MMV688704]	5.09	-0.53	–	–	–	–
CON=C(C(=O)OC)c1ccccc1CON=C(C)c1cccc(C(F)(F)F)c1 [MMV688754, Trifloxystrobin]	–	–	-1.92	-5.74	–	–
O=[N+]([O-])c1cn2c(n1)OC[C@@H](OCc1ccc(OC(F)(F)F)cc1)C2 [MMV688755, Pretomanid, reference compound]	–	–	-0.93	-1.01	–	–
CC(=O)NC[C@H]1CN(c2ccc(N3CCSCC3)c(F)c2)C(=O)O1 [MMV688756, Sutezolid, reference compound]	–	–	-3.45	-0.37	–	–
CS(=O)(=O)c1ccc(C(=O)N(CC2CCCO2)c2nc3ccccc3s2)cc1[N+](=O)[O-] (centres unmarked) [MMV688761]	1.26	0.42	–	–	–	–
c1ccc(-c2[nH]c3ccccc3c2C(c2ccccn2)N2CCCC2)cc1 (centres unmarked) [MMV688762]	0.82	0.77	–	–	–	–
CNc1nnc(Sc2cnn(-c3ccccc3)c(=O)c2Cl)s1 [MMV688763]	6.98	14.69	–	–	–	–
COc1ccc(-c2onc(C(F)(F)F)c2-c2ccc(Cl)cc2)c(O)c1 [MMV688766]	7.61	28.52	–	–	1.11	0.26
Cc1[nH]c2ccccc2c1C(c1cccs1)N1CCN(C)CC1 (centres unmarked) [MMV688768]	19.18	27.24	–	–	5.02	7.48
Cc1ccccc1C(=O)N1NC(=Nc2ccccc2)SC1(C)C [MMV688771]	-0.49	-1.69	–	–	–	–
O=C(Cn1ccnc1[N+](=O)[O-])NCc1ccccc1 [MMV688773, Benznidazole, reference compound]	–	–	-0.2	1.37	–	–
CC[C@@H]([C@H](C)O)n1ncn(-c2ccc(N3CCN(c4ccc(OC[C@@H]5CO[C@@](Cn6cncn6)(c6ccc(F)cc6F)C5)cc4)CC3)cc2)c1=O [MMV688774, Posaconazole, reference compound]	–	–	-0.69	-1.09	–	–
Cc1cccnc1NC(=O)c1cccc(OCc2c(C)noc2C)c1 [MMV688793]	-3.90	-0.61	–	–	–	–
O=C(NCCc1ccn(-c2ccccc2)n1)C1CCCCC1 [MMV688795]	0.14	-0.21	–	–	–	–
O=C(NCc1nnc2n1CCCCC2)c1ccc(-c2ccc(F)cc2)o1 [MMV688796]	-0.28	-3.38	–	–	–	–
CC1CCCCN1C(=O)NCCc1coc(-c2ccc(F)cc2)n1 (centres unmarked) [MMV688797]	-3.70	-1.62	–	–	–	–
CS(=O)(=O)c1ccccc1C(=O)N(Cc1ccccc1)c1ccccc1 [MMV688798]	13.11	63.28	–	–	-0.92	-1.65
COc1ccc2nccc(NC(=O)C3CCN(CCc4ccc(Cl)cc4)CC3)c2n1 [MMV688844]	-0.25	-3.99	–	–	–	–
